Data: the NIST ThermoML archive (doi:10.1016/j.tca.2005.01.064)
± gives the expanded uncertainty stated by the source.

Assays:
[1] = excess molar enthalpy (molar enthalpy of mixing); xn = mol fraction of the nth substance listed; details: 308.15 K, 101.33 kPa, Liquid, Flow calorimetry
[2] = 308.15 K; 101.33 kPa; Liquid; Vibrating tube method

OCCO [1,2-ethanediol] + CCO
excess molar enthalpy ([1]; x1 = 0.0719): 0.0526 ± 0.000765 kcal/mol | excess molar enthalpy ([1]; x1 = 0.1341): 0.0833 ± 0.00108 kcal/mol | excess molar enthalpy ([1]; x1 = 0.1886): 0.103 ± 0.00127 kcal/mol | excess molar enthalpy ([1]; x1 = 0.2365): 0.115 ± 0.00139 kcal/mol | excess molar enthalpy ([1]; x1 = 0.3173): 0.126 ± 0.00151 kcal/mol | excess molar enthalpy ([1]; x1 = 0.3826): 0.131 ± 0.00155 kcal/mol | excess molar enthalpy ([1]; x1 = 0.4817): 0.131 ± 0.00155 kcal/mol | excess molar enthalpy ([1]; x1 = 0.5533): 0.125 ± 0.00148 kcal/mol | excess molar enthalpy ([1]; x1 = 0.6502): 0.115 ± 0.00139 kcal/mol | excess molar enthalpy ([1]; x1 = 0.7361): 0.099 ± 0.00122 kcal/mol | excess molar enthalpy ([1]; x1 = 0.788): 0.0846 ± 0.00108 kcal/mol | excess molar enthalpy ([1]; x1 = 0.8479): 0.0684 ± 0.000932 kcal/mol | excess molar enthalpy ([1]; x1 = 0.8815): 0.0565 ± 0.000813 kcal/mol | excess molar enthalpy ([1]; x1 = 0.9177): 0.0413 ± 0.000645 kcal/mol | excess molar enthalpy ([1]; x1 = 0.9371): 0.0333 ± 0.000574 kcal/mol | excess molar enthalpy ([1]; x1 = 0.9571): 0.0229 ± 0.000478 kcal/mol | excess molar enthalpy ([1]; x1 = 0.9781): 0.012 ± 0.000359 kcal/mol

OCCOCCO [diethylene glycol]
mass density [2]: 1105.65 ± 0.57 kg/m3

OCCOCCO [diethylene glycol] + CCO
excess molar enthalpy ([1]; x1 = 0.0434): 0.0185 ± 0.00043 kcal/mol | excess molar enthalpy ([1]; x1 = 0.0833): 0.0319 ± 0.00055 kcal/mol | excess molar enthalpy ([1]; x1 = 0.1199): 0.0422 ± 0.000669 kcal/mol | excess molar enthalpy ([1]; x1 = 0.1537): 0.0483 ± 0.000717 kcal/mol | excess molar enthalpy ([1]; x1 = 0.2142): 0.0582 ± 0.000813 kcal/mol | excess molar enthalpy ([1]; x1 = 0.2663): 0.063 ± 0.00086 kcal/mol | excess molar enthalpy ([1]; x1 = 0.3528): 0.0668 ± 0.000908 kcal/mol | excess molar enthalpy ([1]; x1 = 0.4208): 0.0668 ± 0.000908 kcal/mol | excess molar enthalpy ([1]; x1 = 0.5216): 0.0644 ± 0.000884 kcal/mol | excess molar enthalpy ([1]; x1 = 0.6206): 0.0565 ± 0.000813 kcal/mol | excess molar enthalpy ([1]; x1 = 0.6856): 0.0507 ± 0.000741 kcal/mol | excess molar enthalpy ([1]; x1 = 0.7658): 0.0417 ± 0.000645 kcal/mol | excess molar enthalpy ([1]; x1 = 0.8135): 0.0353 ± 0.000598 kcal/mol | excess molar enthalpy ([1]; x1 = 0.8674): 0.0262 ± 0.000502 kcal/mol | excess molar enthalpy ([1]; x1 = 0.8973): 0.0217 ± 0.000454 kcal/mol | excess molar enthalpy ([1]; x1 = 0.929): 0.0152 ± 0.000382 kcal/mol | excess molar enthalpy ([1]; x1 = 0.9632): 0.00786 ± 0.000311 kcal/mol

CCO [ethanol]
mass density [2]: 776.41 ± 0.17 kg/m3

OCCOCCOCCO [triethylene glycol]
mass density [2]: 1112.09 ± 0.57 kg/m3

OCCOCCOCCO [triethylene glycol] + CCO
excess molar enthalpy ([1]; x1 = 0.0313): 0.0319 ± 0.00055 kcal/mol | excess molar enthalpy ([1]; x1 = 0.0606): 0.0563 ± 0.000813 kcal/mol | excess molar enthalpy ([1]; x1 = 0.0883): 0.077 ± 0.001 kcal/mol | excess molar enthalpy ([1]; x1 = 0.1143): 0.0905 ± 0.00115 kcal/mol | excess molar enthalpy ([1]; x1 = 0.1623): 0.111 ± 0.00136 kcal/mol | excess molar enthalpy ([1]; x1 = 0.2047): 0.125 ± 0.00148 kcal/mol | excess molar enthalpy ([1]; x1 = 0.2792): 0.141 ± 0.00165 kcal/mol | excess molar enthalpy ([1]; x1 = 0.3405): 0.145 ± 0.0017 kcal/mol | excess molar enthalpy ([1]; x1 = 0.4365): 0.15 ± 0.00174 kcal/mol | excess molar enthalpy ([1]; x1 = 0.5376): 0.146 ± 0.0017 kcal/mol | excess molar enthalpy ([1]; x1 = 0.6078): 0.145 ± 0.0017 kcal/mol | excess molar enthalpy ([1]; x1 = 0.6992): 0.132 ± 0.00155 kcal/mol | excess molar enthalpy ([1]; x1 = 0.756): 0.117 ± 0.00141 kcal/mol | excess molar enthalpy ([1]; x1 = 0.823): 0.0973 ± 0.00122 kcal/mol | excess molar enthalpy ([1]; x1 = 0.8613): 0.0786 ± 0.00103 kcal/mol | excess molar enthalpy ([1]; x1 = 0.9029): 0.0595 ± 0.000837 kcal/mol | excess molar enthalpy ([1]; x1 = 0.949): 0.0324 ± 0.000574 kcal/mol
